Results as given in patent publication US9403776B2, “Aryl- and heteroaryl-substituted tetrahydrobenzazepines and use thereof to block reuptake of norepinephrine, dopamine, and serotonin” (Albany Molecular Research, Inc., priority 2005, dated 2016).
Where a name gives a salt, the structure may show the parent alone.

In the case of `Cc1ccc(-c2ccc3c(c2)CN(C)CCC3c2cccc(F)c2)nn1` (single isomer, unassigned; (+)) (as salt: citrate) [Example 84 (+), (+)-5-(3-fluorophenyl)-2-methyl-8-(6-methylpyridazin-3-yl)-2,3,4,5-tetrahydro-1H-benzo[c]azepine], the melting point is reported as 90 to 95 °C.
`Cc1ccc2c(c1)CN(C)CCC2c1ccc(F)cc1` (single isomer, unassigned; (+)) (as salt: hydrochloride) [Example 16, (+)-5-(4-fluorophenyl)-2,8-dimethyl-2,3,4,5-tetrahydro-1H-benzo[c]azepine] showed a melting point of 243 to 244 °C.
With `Cc1ccc(-c2ccc3c(c2)CN(C)CCC3c2ccccc2)nn1` (single isomer, unassigned; (+)) (as salt: hydrochloride) [Example 24, (+)-2-methyl-8-(6-methyl-pyridazin-3-yl)-5-phenyl-2,3,4,5-tetrahydro-1H-benzo[c]azepine] the melting point was 168 to 170 °C.
Work on `CN1CCC(c2ccccc2)c2ccc(-c3cccnn3)cc2C1` (single isomer, unassigned; (+)) (as salt: hydrochloride) [Example 25, (+)-2-methyl-5-phenyl-8-(pyridazin-3-yl)-2,3,4,5-tetrahydro-1H-benzo[c]azepine] yielded a melting point of 154 to 156 °C.
With `Cc1ccc(-c2ccc3c(c2)CN(C)CCC3c2ccc(Cl)cc2)nn1` (single isomer, unassigned; (+)) (as salt: hydrochloride) [Example 39, (+)-5-(4-chlorophenyl)-2-methyl-8-(6-methyl-pyridazin-3-yl)-2,3,4,5-tetrahydro-1H-benzo[c]azepine] the melting point was 179 to 181 °C (dec.).
With `CN1CCC(c2ccc(Cl)cc2)c2ccc(-c3cccnn3)cc2C1` (single isomer, unassigned; (+)) (as salt: hydrochloride) [Example 40, (+)-5-(4-chlorophenyl)-2-methyl-8-pyridazin-3-yl-2,3,4,5-tetrahydro-1H-benzo[c]azepine] the melting point was 187 to 189 °C (dec.).
For `CN1CCC(c2ccccc2)c2ccc(-c3ccc(N(C)C)nn3)cc2C1` (single isomer, unassigned; (+)) (as salt: maleate) [Example 26, (+)-dimethyl-[6-(2-methyl-5-phenyl-2,3,4,5-tetrahydro-1H-benzo[c]azepine-8-yl)-pyridazin-3-yl]-amine], the melting point was 99 to 102 °C.
With `CN1CCC(c2ccccc2)c2ccc(-c3ncccn3)cc2C1` (single isomer, unassigned; (+)) (as salt: maleate) [Example 27, (+)-2-methyl-5-phenyl-8-(pyrimidin-2-yl)-2,3,4,5-tetrahydro-1H-benzo[c]azepine] the melting point was 76 to 78 °C.
Compound `CN1CCC(c2ccccc2)c2ccc(-c3cncnc3)cc2C1` (single isomer, unassigned; (+)) (as salt: maleate) [Example 28, (+)-2-methyl-5-phenyl-8-(pyrimidin-5-yl)-2,3,4,5-tetrahydro-1H-benzo[c]azepine] has a melting point of 93 to 96 °C.
Compound `CN1CCC(c2ccccc2)c2ccc(-c3cnccn3)cc2C1` (single isomer, unassigned; (+)) (as salt: maleate) [Example 29, (+)-2-methyl-5-phenyl-8-(pyrazin-2-yl)-2,3,4,5-tetrahydro-1H-benzo[c]azepine] has a melting point of 67 to 69 °C.
`CN1CCC(c2ccccc2)c2ccc(-c3ccncc3)cc2C1` (single isomer, unassigned; (+)) (as salt: maleate) [Example 31, (+)-2-methyl-5-phenyl-8-(pyridin-4-yl)-2,3,4,5-tetrahydro-1H-benzo[c]azepine] showed a melting point of 91 to 93 °C.
`CN1CCC(c2ccccc2)c2ccc(-c3cccc(N)n3)cc2C1` (single isomer, unassigned; (+)) (as salt: maleate) [Example 32, (+)-6-(2-methyl-5-phenyl-2,3,4,5-tetrahydro-1H-benzo[c]azepin-8-yl)pyridine-2-amine] gave a melting point of 112 to 114 °C.
Compound `CN1CCC(c2ccccc2)c2ccc(N3CCOCC3)cc2C1` (single isomer, unassigned; (+)) (as salt: maleate) [Example 34, (+)-4-(2-methyl-5-phenyl-2,3,4,5-tetrahydro-1H-benzo[c]azepin-8-yl)morpholine] has a melting point of 88 to 89 °C.
With `Cc1noc(C)c1-c1ccc2c(c1)CN(C)CCC2c1ccc(Cl)cc1` (single isomer, unassigned; (+)) (as salt: maleate) [Example 43, (+)-5-(4-chlorophenyl)-8-(3,5-dimethylisoxazol-4-yl)-2-methyl-2,3,4,5-tetrahydro-1H-benzo[c]azepine] the melting point was 196 to 198 °C.
Work on `CN1CCC(c2ccc(Cl)cc2)c2ccc(-c3ncccn3)cc2C1` (single isomer, unassigned; (+)) (as salt: maleate) [Example 44, (+)-5-(4-chlorophenyl)-2-methyl-8-pyrimidin-2-yl-2,3,4,5-tetrahydro-1H-benzo[c]azepine] yielded a melting point of 84 to 85 °C.
Compound `CN1CCC(c2ccc(Cl)cc2)c2ccc(N3CCOCC3)cc2C1` (single isomer, unassigned; (+)) (as salt: maleate) [Example 48, (+)-5-(4-chlorophenyl)-2-methyl-8-morpholin-4-yl-2,3,4,5-tetrahydro-1H-benzo[c]azepine] has a melting point of 94 to 96 °C.
Compound `CN1CCC(c2ccc3ccccc3c2)c2ccc(-c3cccnn3)cc2C1` (single isomer, unassigned; (+)) (as salt: maleate) [Example 50, (+)-2-methyl-5-naphthalen-2-yl-8-pyridazin-3-yl-2,3,4,5-tetrahydro-1H-benzo[c]azepine] has a melting point of 99 to 102 °C.
`CN1CCC(c2ccc3ccccc3c2)c2ccc(N3CCOCC3)cc2C1` (single isomer, unassigned; (+)) (as salt: maleate) [Example 51, (+)-2-methyl-8-morpholin-4-yl-5-naphthalen-2-yl-2,3,4,5-tetrahydro-1H-benzo[c]azepine] gave a melting point of 110 to 112 °C.
Compound `COc1ccc2c(c1)CN(C)CCC2c1ccc2sccc2c1` (single isomer, unassigned; (+)) (as salt: maleate) [Example 52 (+), (+)-5-benzo[b]thiophen-5-yl-8-methoxy-2-methyl-2,3,4,5-tetrahydro-1H-benzo[c]azepine] has a melting point of 92 to 96 °C.
Compound `CCN1CCC(c2ccccc2)c2ccc(N3CCOCC3)cc2C1` (single isomer, unassigned; (+)) (as salt: maleate) [Example 57 (+), (+)-4-(2-ethyl-5-phenyl-2,3,4,5-tetrahydro-1H-benzo[c]azepin-8-yl)morpholine] has a melting point of 64 to 66 °C.
For `c1ccc(CN2CCC(c3ccccc3)c3ccc(N4CCOCC4)cc3C2)cc1` (single isomer, unassigned; (+)) (as salt: maleate) [Example 61, (+)-4-(2-benzyl-5-phenyl-2,3,4,5-tetrahydro-1H-benzo[c]azepin-8-yl)morpholine], the melting point was 108 to 110 °C.
`CN1CCC(c2ccc(F)cc2)c2ccc(N3CCOCC3)cc2C1` (single isomer, unassigned; (+)) (as salt: maleate) [Example 85, (+)-4-(5-(4-fluorophenyl)-2-methyl-2,3,4,5-tetrahydro-1H-benzo[c]azepin-8-yl)morpholine] gave a melting point of 87 to 90 °C.
For `Cc1ccc(-c2ccc3c(c2)CN(C)CCC3c2ccc(F)cc2)nn1` (single isomer, unassigned; (+)) (as salt: maleate) [Example 89, (+)-5-(4-fluorophenyl)-2-methyl-8-(6-methylpyridazin-3-yl)-2,3,4,5-tetrahydro-1H-benzo[c]azepine], the melting point was 173 to 176 °C.
With `CN1CCC(c2ccccc2)c2ccc(C(C)(C)O)cc2C1` (single isomer, unassigned; (+)) (as salt: tartrate) [Example 18, (+)-2-(2-methyl-5-phenyl-2,3,4,5-tetrahydro-1H-benzo[c]azepin-8-yl)propan-2-ol] the melting point was 103 to 105 °C.
Compound `CN1CCC(c2ccccc2)c2ccc(CN3CCOCC3)cc2C1` (single isomer, unassigned; (+)) (as salt: tartrate) [Example 22, (+)-4-((2-methyl-5-phenyl-2,3,4,5-tetrahydro-1H-benzo[c]azepin-8-yl)methyl)morpholine] has a melting point of 124 to 127 °C.
Work on `Cc1nc(-c2ccc3c(c2)CN(C)CCC3c2ccccc2)no1` (single isomer, unassigned; (+)) (as salt: tartrate) [Example 33, (+)-5-methyl-3-(2-methyl-5-phenyl-2,3,4,5-tetrahydro-1H-benzo[c]azepin-8-yl)-1,2,4-oxadiazole] yielded a melting point of 102 to 104 °C.
With `OCCN1CCC(c2ccccc2)c2ccc(N3CCOCC3)cc2C1` (single isomer, unassigned; (+)) (as salt: tartrate) [Example 59, (+)-2-(8-morpholino-5-phenyl-4,5-dihydro-1H-benzo[c]azepin-2(3H)-yl)ethanol] the melting point was 93 to 96 °C.
In the case of `FCCN1CCC(c2ccccc2)c2ccc(N3CCOCC3)cc2C1` (single isomer, unassigned; (+)) (as salt: tartrate) [Example 60, (+)-4-(2-(2-fluoroethyl)-5-phenyl-2,3,4,5-tetrahydro-1H-benzo[c]azepin-8-yl)morpholine], the melting point is reported as 102 to 105 °C.
Compound `CN1CCC(c2ccccc2)c2ccc(N3CCN(c4ncccn4)CC3)cc2C1` (single isomer, unassigned; (+)) (as salt: tartrate) [Example 69, (+)-2-methyl-5-phenyl-8-(4-(pyrimidin-2-yl)piperazin-1-yl)-2,3,4,5-tetrahydro-1H-benzo[c]azepine] has a melting point of 119 to 121 °C.
For `CN1CCC(c2ccccc2)c2ccc(-c3ccc4nccn4c3)cc2C1` (single isomer, unassigned; (+)) (as salt: tartrate) [Example 73, (+)-8-(imidazo[1,2-a]pyridin-6-yl)-2-methyl-5-phenyl-2,3,4,5-tetrahydro-1H-benzo[c]azepine], the melting point was 142 to 144 °C.
Compound `Cc1ccc(-c2ccc3c(c2)CN(C)CCC3c2ccc(C#N)c(F)c2)nn1` (single isomer, unassigned; (+)) (as salt: tartrate) [Example 92 (+), (+)-2-fluoro-4-(2-methyl-8-(6-methylpyridazin-3-yl)-2,3,4,5-tetrahydro-1H-benzo[c]azepin-5-yl)benzonitrile] has a melting point of 112 to 115 °C.
